Experiment [1] concerns the target affinity purified human epitope-tagged (Flag) HDAC1 (Homo sapiens, UniProt Q13547). As to the kind of experiment: Histone Deacetylase (HDAC) enzymatic activity, [3H]acetyl-labeled histone substrate. It counts as biochemical. The arrangement: Flag. As to the method:
Substrate ([^3H]acetyl-labeled murine erythroleukemia cell-derived histone) was added and the samples were incubated for 20 min at 37° C. in a total volume of 30 μl. The reaction were then stopped and released acetate was extracted and the amount of radioactivity released determined by scintillation counting.
Substrate ([^3H]acetyl-labelled murine erythroleukemia cell-derived histone) was added and the samples were incubated for 20 min at 37° C. in a total volume of 30 μl. The reactions were then stopped and relaesed acetate was extracted and the amount of radioactivity released determined by scintillation counting.
Substrate ([^3H]acetyl-labelled murine erythroleukemia cell-derived histone) was added and the samples were incubated for 20 min at 37° C. in a total volume of 30 μl. The reactions were then stopped and released acetate was extracted and the amount of radioactivity released determined by scintillation counting.
The effect was assayed by incubating the enzyme preparation in the absence of substrate on ice for 20 minutes with the indicated amounts of compound. Substrate([^3H]acetyl-labeled murine erythroleukemia cell-derived histones) was added and the samples were incubated for 20 minutes at 37° C. in a total volume of 30 μl. The reactions were then stopped and released acetate was extracted and the amount of radioactivity released determined by scintillation counting.

For experiment [2], the system named is Murine erythroleukemia (MEL) cells. As to the kind of experiment: MEL cell differentiation assay (benzidine assay; cell growth by Coulter Counter). The following applies: for MEL Diff % B+ / MEL Diff Cells/ml × 10^−5: Table 2; for concentration able to induce MEL cell differentiation: FIGS. 1, 3, 4, 6; for concentration able to induce MEL cell differentiation / MEL Differentiation Opt.: 5-day culture; for MEL Differentiation % B+ / MEL Differentiation Opt.: Table 1; for MEL Differentiation % B+: benzidine-positive cells at Opt. concentration; for MEL Differentiation Opt.: optimal concentration; for MEL Diff Cells/ml × 10^−5: cell growth. Type of experiment: cell-based. The procedure:
The MEL cell differentiation assay was used to assess the ability of Compound 1 to induce terminal differentiation. MEL cells (logarithmically dividing) were cultured with the indicated concentrations of Compound 1. Following a 5-day culture period, cell growth was determined using a Coulter Counter and differentiation was determined microscopically using the benzidine assay to determine hemoglobin protein accumulation on a per cell basis.
The MEL cell differentiation assay was used to assess the ability of Compound 2 to induce terminal differentiation. MEL cells (logarithmically dividing) were cultured with the indicated concentrations of Compound 2. Following a 5-day culture period differentiation was determined microscopically using the benzidine assay to determine hemoglobin protein accumulation on a per cell basis.
The MEL cell differentiation assay was used to assess the ability of Compound 3 to induce terminal differentiation. MEL cells (logarithmically dividing) were cultured with the indicated concentrations of Compound 3. Following a 5-day culture period differentiation was determined microsdopically using the benzidine assay to determine hemoglobin protein accumulation on a per cell basis.
The MEL cell differentiation assay was used to assess the ability of Compound 4 to induce terminal differentiation. MEL cells (logarithmically dividing) were cultured with the indicated concentrations of Compound 4. Following a 5-day culture period differentiation was determined microscopically using the benzidine assay to determine hemoglobin protein accumulation on a per cell basis.
All the compounds which were prepared were tested. […] Table 2 is compiled from experiments similar to the experiments described in Examples 7-10 above.

The mark [3] stands for this setting: Table 2, unit nM, read-out: HDAC inh ID50.
Where [4] appears, read: FIGS. 2, 5, 7, read-out: ID50 of HDAC1 enzymatic activity.
Setting [5] is: Table 2, unit column μm, read-out: HDAC inh ID50.
The mark [6] stands for this setting: Table 2, unit μM, read-out: HDAC inh ID50.

The results in this text go back to patent publication US20070010669A1, “Novel class of cytodifferentiating agents and histone deacetylase inhibitors, and methods of use thereof” (priority 1999, published 2007).

Like-named read-outs stand apart in the source and are kept apart here. Some results are limits rather than exact numbers.

affinity purified human epitope-tagged (Flag) HDAC1, sequence (Q13547 whole entry): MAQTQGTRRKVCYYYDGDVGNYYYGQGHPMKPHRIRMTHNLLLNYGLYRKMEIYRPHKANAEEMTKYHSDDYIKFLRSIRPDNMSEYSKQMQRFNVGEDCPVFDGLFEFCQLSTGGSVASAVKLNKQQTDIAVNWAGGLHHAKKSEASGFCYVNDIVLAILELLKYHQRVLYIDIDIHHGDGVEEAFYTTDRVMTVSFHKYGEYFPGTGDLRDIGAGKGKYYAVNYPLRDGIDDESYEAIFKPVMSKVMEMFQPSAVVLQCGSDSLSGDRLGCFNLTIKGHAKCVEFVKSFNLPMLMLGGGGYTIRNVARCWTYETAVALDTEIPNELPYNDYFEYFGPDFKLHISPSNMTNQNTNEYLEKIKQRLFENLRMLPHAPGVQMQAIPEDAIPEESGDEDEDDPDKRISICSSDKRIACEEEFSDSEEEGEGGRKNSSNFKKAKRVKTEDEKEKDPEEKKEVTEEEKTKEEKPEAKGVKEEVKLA

With `O=C(CCCCC[C@H](NC(=O)c1cccnc1)C(=O)Nc1ccccc1)NO` (stereo in doubt) [Compound 2, N-Nicotinoyl-(L)-α-aminosuberoylanilide-ω-hydroxamic acid], the IC50 in experiment [1] (setting [3]) is 50 nM. Also, the “MEL Diff % B+” value in experiment [2] is 27%.

In the case of `O=C(CCCCC[C@H](NC(=O)c1ccccc1)C(=O)Nc1ccccc1)NO` [Compound 1, N-Benzoyl-(L)-α-aminosuberoylanilide-ω-hydroxamic acid], the IC50 in experiment [1] (setting [4]) stood at 1 nM. In addition, in experiment [2], the “concentration able to induce MEL cell differentiation” value stood at 200 nM, the “MEL Differentiation % B+” value worked out at 44%, the “MEL Differentiation Opt.” value was 200 nM and the “MEL Diff % B+” value was 44%. Besides, the “MEL Diff Cells/ml × 10^−5” value in experiment [2] was 9 Cells/ml × 10^−5.

In the case of `O=C(CCCCC[C@H](NC(=O)c1cccnc1)C(=O)Nc1ccccc1)NO` [Compound 2, N-Nicotinoyl-(L)-α-aminosuberoylanilide-ω-hydroxamic acid], in experiment [2], the “concentration able to induce MEL cell differentiation” value is given as 800 nM, the “MEL Differentiation % B+” value was determined as 27% and the “MEL Differentiation Opt.” value worked out at 800 nM.

Turning to `O=C(CCCCCC(NC(=O)OCc1ccccc1)C(=O)Nc1ccccc1)NO` (stereo not drawn) [Compound 3, N-benzyloxycarbonyl-(L)-α-aminosuberateanilide-ω-hydroxamic acid], the IC50 in experiment [1] (setting [3]) is 100 nM. For the same molecule, in experiment [2], the “MEL Diff % B+” value came out at 16% and the “MEL Diff Cells/ml × 10^−5” value is listed as 3.3 Cells/ml × 10^−5.

Consider `O=C(CCCCC[C@H](NC(=O)OCc1ccccc1)C(=O)Nc1ccccc1)NO` [Compound 3, N-benzyloxycarbonyl-(L)-α-aminosuberateanilide-ω-hydroxamic acid], for which the IC50 in experiment [1] (setting [4]) was 100 nM. Moreover, in experiment [2], the “concentration able to induce MEL cell differentiation” value is on record as 400 nM, the “MEL Differentiation % B+” value was found to be 16% and the “MEL Differentiation Opt.” value came out at 400 nM.

As for `O=C(/C=C/c1cccc(C(C(=O)Nc2ccccc2)C(=O)Nc2ccccc2)c1)NO` [Compound 77, 3-(malonyldi(phenylamide)) cinnamyl hydroxamic acid], in experiment [2], the “MEL Diff % B+” value was found to be 9% and the “MEL Diff Cells/ml × 10^−5” value is given as 9.0 Cells/ml × 10^−5.

Take `O=C(O)CCCCC[C@@H](NC(=O)c1ccccc1)C(=O)Nc1ccccc1` [Compound 656]: in experiment [1] (setting [5]), the IC50 was greater than 100000 nM. Also, the “MEL Diff % B+” value in experiment [2] came to 0%.

Regarding `O=C(O)CCCCC[C@@H](NC(=O)c1cccnc1)C(=O)Nc1ccccc1` [Compound 657], in experiment [1] (setting [5]), the IC50 was greater than 100000 nM. Further, the “MEL Diff % B+” value in experiment [2] came out at 0%.

`O=C(O)CCCCCC(NC(=O)OCc1ccccc1)C(=O)Nc1cccc2cccnc12` (centres unmarked) [Compound 659]: the IC50 in experiment [1] (setting [6]) came out at 10000 nM. In addition, the “MEL Diff % B+” value in experiment [2] is reported as 0%.

In the case of `O=C(CCCCC[C@@H](NC(=O)c1ccccc1)C(=O)Nc1cccc2cccnc12)NO` [Compound 661], in experiment [1] (setting [3]), the IC50 is 20 nM. In experiment [2], the “MEL Diff % B+” value is listed as 7%.

As for `CS(=O)(=O)NCCCCCC(=O)Nc1ccccc1` [Compound 662], the IC50 in experiment [1] (setting [6]) is greater than 100000 nM. Also, in experiment [2], the “MEL Diff % B+” value turned out to be 0%.

Turning to `O=C(CCCCCCC(=O)C(F)(F)F)Nc1ccccc1` [Compound 670], the “MEL Diff Cells/ml × 10^−5” value in experiment [2] is 13.0 Cells/ml × 10^−5.

Regarding `COP(=O)(NCCCCCC(=O)Nc1ccccc1)OC` [Compound 673], in experiment [2], the “MEL Diff % B+” value was 0% and the “MEL Diff Cells/ml × 10^−5” value is “No inh”.

Turning to `O=C(CCCCCBr)Nc1ccccc1` [Compound 676], in experiment [2], the “MEL Diff % B+” value came out at 0% and the “MEL Diff Cells/ml × 10^−5” value is “No inh”.

Consider `CC(=O)SCCCCCCCC(=O)Nc1ccccc1` [Compound 680], for which the IC50 in experiment [1] (setting [6]) is greater than 100000 nM.

In the case of `O=C(CCCCCCn1ccnc1)Nc1ccccc1` [Compound 684], in experiment [2], the “MEL Diff % B+” value turned out to be 0% and the “MEL Diff Cells/ml × 10^−5” value is on record as “No inh”.

In the case of `NS(=O)(=O)CCCCCCC(=O)Nc1ccccc1` [Compound 686], in experiment [2], the “MEL Diff % B+” value is reported as 0% and the “MEL Diff Cells/ml × 10^−5” value is “No inh”.

Take `O=C(CCCCCC(C(=O)Nc1ccc2ncccc2c1)C(=O)Nc1ccc2ncccc2c1)NO` [Compound 692]: the “MEL Diff % B+” value in experiment [2] was 27%.
